Source: the NIST ThermoML archive (doi:10.1021/je800110r)
± gives the expanded uncertainty stated by the source.

Conditions: 293.15 K, Liquid, Vibrating tube method

CCCCCCCCCC [decane]
Conditions	mass density [kg/m3]
28146 kPa	749.4 ± 2.1
28177 kPa	749.5 ± 2.1
28205 kPa	749.5 ± 2.1
28236 kPa	749.5 ± 2.1
28261 kPa	749.4 ± 2.1
28289 kPa	749.5 ± 2.1
28321 kPa	749.5 ± 2.1
28349 kPa	749.5 ± 2.1
28373 kPa	749.5 ± 2.1
28405 kPa	749.5 ± 2.1
28425 kPa	749.6 ± 2.1
28454 kPa	749.5 ± 2.1
28482 kPa	749.6 ± 2.1
28507 kPa	749.6 ± 2.1
28527 kPa	749.6 ± 2.1
28552 kPa	749.5 ± 2.1
28597 kPa	749.7 ± 2.1
28622 kPa	749.7 ± 2.1
28643 kPa	749.6 ± 2.1
28663 kPa	749.8 ± 2.1
28687 kPa	749.7 ± 2.1
28712 kPa	749.7 ± 2.1
28749 kPa	749.8 ± 2.1
28770 kPa	749.7 ± 2.1
28807 kPa	749.8 ± 2.1
28836 kPa	749.7 ± 2.1
28865 kPa	749.9 ± 2.1
28886 kPa	749.9 ± 2.1
28919 kPa	749.9 ± 2.1
28945 kPa	749.9 ± 2.1
28974 kPa	749.9 ± 2.1
28999 kPa	749.9 ± 2.1
29029 kPa	749.9 ± 2.1
29050 kPa	749.9 ± 2.1
29084 kPa	749.9 ± 2.1
29114 kPa	750 ± 2.1
29149 kPa	749.9 ± 2.1
29175 kPa	750 ± 2.1
29213 kPa	750 ± 2.1
29232 kPa	750.1 ± 2.1
29263 kPa	750.1 ± 2.1
29295 kPa	750.1 ± 2.1
29326 kPa	750.1 ± 2.1
29350 kPa	750.1 ± 2.1
29376 kPa	750.2 ± 2.1
29396 kPa	750.1 ± 2.1
29419 kPa	750.1 ± 2.1
29439 kPa	750.2 ± 2.1
29470 kPa	750.3 ± 2.1
29494 kPa	750.2 ± 2.1
29518 kPa	750.3 ± 2.1
29549 kPa	750.2 ± 2.1
29574 kPa	750.3 ± 2.1
29600 kPa	750.3 ± 2.1
29620 kPa	750.3 ± 2.1
29645 kPa	750.3 ± 2.1
29668 kPa	750.3 ± 2.1
29701 kPa	750.3 ± 2.1
29724 kPa	750.4 ± 2.1
29760 kPa	750.4 ± 2.1
29780 kPa	750.5 ± 2.1
29804 kPa	750.3 ± 2.1
29828 kPa	750.5 ± 2.1
29852 kPa	750.4 ± 2.1
29877 kPa	750.4 ± 2.1
29904 kPa	750.4 ± 2.1
29931 kPa	750.5 ± 2.1
29960 kPa	750.4 ± 2.1
29996 kPa	750.5 ± 2.1
30021 kPa	750.6 ± 2.1
30041 kPa	750.6 ± 2.1
30078 kPa	750.6 ± 2.1
30098 kPa	750.5 ± 2.1
30123 kPa	750.6 ± 2.1
30144 kPa	750.7 ± 2.1
30168 kPa	750.7 ± 2.1
30194 kPa	750.7 ± 2.1
30219 kPa	750.7 ± 2.1
30248 kPa	750.7 ± 2.1
30273 kPa	750.8 ± 2.1
30294 kPa	750.7 ± 2.1
30328 kPa	750.8 ± 2.1
30358 kPa	750.8 ± 2.1
30393 kPa	750.9 ± 2.1
30419 kPa	750.8 ± 2.1
30455 kPa	750.9 ± 2.1
30479 kPa	750.8 ± 2.1
30506 kPa	750.8 ± 2.1
30546 kPa	750.8 ± 2.1
30560 kPa	750.8 ± 2.1
30576 kPa	750.9 ± 2.1
30591 kPa	750.9 ± 2.1
30604 kPa	751 ± 2.1
30620 kPa	750.9 ± 2.1
30641 kPa	750.9 ± 2.1
30659 kPa	750.9 ± 2.1
30682 kPa	751 ± 2.1
30703 kPa	751.1 ± 2.1
30721 kPa	751 ± 2.1
30739 kPa	751 ± 2.1
30752 kPa	751 ± 2.1
30771 kPa	751 ± 2.1
30795 kPa	751 ± 2.1
30813 kPa	751.1 ± 2.1
30826 kPa	751.1 ± 2.1
30845 kPa	751.1 ± 2.1
30866 kPa	751 ± 2.1
30887 kPa	751.1 ± 2.1
30908 kPa	751.1 ± 2.1
30924 kPa	751 ± 2.1
30942 kPa	751.1 ± 2.1
30955 kPa	751.1 ± 2.1
30977 kPa	751.1 ± 2.1
30995 kPa	751.1 ± 2.1
31014 kPa	751.1 ± 2.1
31028 kPa	751.2 ± 2.1
31044 kPa	751.1 ± 2.1
31057 kPa	751.1 ± 2.1
31074 kPa	751.2 ± 2.1
31090 kPa	751.2 ± 2.1
31106 kPa	751.2 ± 2.1
31130 kPa	751.3 ± 2.1
31147 kPa	751.3 ± 2.1
31168 kPa	751.3 ± 2.1
31188 kPa	751.3 ± 2.1
31207 kPa	751.3 ± 2.1
31224 kPa	751.3 ± 2.1
31243 kPa	751.2 ± 2.1
31260 kPa	751.3 ± 2.1
31279 kPa	751.3 ± 2.1
31295 kPa	751.4 ± 2.1
31314 kPa	751.3 ± 2.1
31339 kPa	751.3 ± 2.1
31356 kPa	751.4 ± 2.1
31375 kPa	751.4 ± 2.1
31391 kPa	751.3 ± 2.1
31412 kPa	751.3 ± 2.1
31425 kPa	751.4 ± 2.1
31441 kPa	751.4 ± 2.1
31455 kPa	751.5 ± 2.1
31472 kPa	751.3 ± 2.1
31489 kPa	751.4 ± 2.1
31503 kPa	751.5 ± 2.1
31520 kPa	751.5 ± 2.1
31542 kPa	751.4 ± 2.1
31564 kPa	751.5 ± 2.1
31581 kPa	751.5 ± 2.1
31601 kPa	751.5 ± 2.1
31615 kPa	751.4 ± 2.1
31636 kPa	751.4 ± 2.1
31651 kPa	751.6 ± 2.1
31670 kPa	751.5 ± 2.1
31687 kPa	751.5 ± 2.1
31710 kPa	751.7 ± 2.1
31724 kPa	751.8 ± 2.1
31738 kPa	751.5 ± 2.1
31755 kPa	751.5 ± 2.1
31774 kPa	751.6 ± 2.1
31797 kPa	751.5 ± 2.1
31811 kPa	751.6 ± 2.1
31831 kPa	751.7 ± 2.1
31847 kPa	751.7 ± 2.1
31864 kPa	751.7 ± 2.1
31885 kPa	751.7 ± 2.1
31907 kPa	751.7 ± 2.1
31928 kPa	751.6 ± 2.1
31944 kPa	751.6 ± 2.1
31965 kPa	751.9 ± 2.1
31989 kPa	751.7 ± 2.1
32005 kPa	751.8 ± 2.1
32027 kPa	751.7 ± 2.1
32043 kPa	751.7 ± 2.1
32061 kPa	751.8 ± 2.1
32081 kPa	751.9 ± 2.1
32100 kPa	751.8 ± 2.1
32124 kPa	751.9 ± 2.1
32148 kPa	751.9 ± 2.1
32167 kPa	751.8 ± 2.1
32191 kPa	751.8 ± 2.1
32207 kPa	751.9 ± 2.1
32230 kPa	751.9 ± 2.1
32246 kPa	751.8 ± 2.1
32266 kPa	751.9 ± 2.1
32282 kPa	751.8 ± 2.1
32299 kPa	751.9 ± 2.1
32324 kPa	752 ± 2.1
32345 kPa	752 ± 2.1
32362 kPa	751.9 ± 2.1
32379 kPa	751.9 ± 2.1
32400 kPa	751.9 ± 2.1
32420 kPa	752 ± 2.1
32445 kPa	752 ± 2.1
32462 kPa	751.9 ± 2.1
32478 kPa	752 ± 2.1
32498 kPa	752 ± 2.1
32520 kPa	752.1 ± 2.1
32537 kPa	751.9 ± 2.1
32555 kPa	752.1 ± 2.1
32572 kPa	752.1 ± 2.1
32592 kPa	752.2 ± 2.1
32612 kPa	752 ± 2.1
32637 kPa	752.2 ± 2.1
32657 kPa	752.1 ± 2.1
32673 kPa	752.1 ± 2.1
32690 kPa	752.1 ± 2.1
32716 kPa	752.1 ± 2.1
32733 kPa	752.2 ± 2.1
32750 kPa	752.1 ± 2.1
32770 kPa	752.1 ± 2.1
32790 kPa	752.2 ± 2.1
32808 kPa	752.2 ± 2.1
32825 kPa	752.3 ± 2.1
32848 kPa	752.2 ± 2.1
32865 kPa	752.4 ± 2.1
32888 kPa	752.3 ± 2.1
32911 kPa	752.2 ± 2.1
32930 kPa	752.4 ± 2.1
32953 kPa	752.4 ± 2.1
32972 kPa	752.4 ± 2.1
32993 kPa	752.3 ± 2.1
33014 kPa	752.3 ± 2.1
33038 kPa	752.3 ± 2.1
33061 kPa	752.4 ± 2.1
33080 kPa	752.4 ± 2.1
33103 kPa	752.3 ± 2.1
33132 kPa	752.4 ± 2.1
33150 kPa	752.5 ± 2.1
33180 kPa	752.4 ± 2.1
33203 kPa	752.4 ± 2.1
33218 kPa	752.4 ± 2.1
33239 kPa	752.5 ± 2.1
33260 kPa	752.3 ± 2.1
33279 kPa	752.4 ± 2.1
33304 kPa	752.5 ± 2.1
33334 kPa	752.5 ± 2.1
33349 kPa	752.4 ± 2.1
33373 kPa	752.6 ± 2.1
33397 kPa	752.7 ± 2.1
33416 kPa	752.7 ± 2.1
33440 kPa	752.5 ± 2.1
33465 kPa	752.6 ± 2.1
33484 kPa	752.5 ± 2.1
33514 kPa	752.6 ± 2.1
33536 kPa	752.6 ± 2.1
33555 kPa	752.6 ± 2.1
33576 kPa	752.6 ± 2.1
33606 kPa	752.7 ± 2.1
33631 kPa	752.8 ± 2.1
33649 kPa	752.6 ± 2.1
33667 kPa	752.8 ± 2.1
33692 kPa	752.7 ± 2.1
33710 kPa	752.8 ± 2.1
33738 kPa	752.8 ± 2.1
33760 kPa	752.7 ± 2.1
33791 kPa	752.9 ± 2.1
33807 kPa	752.8 ± 2.1
33829 kPa	752.8 ± 2.1
33848 kPa	752.8 ± 2.1
33896 kPa	752.8 ± 2.1
33919 kPa	752.9 ± 2.1
33934 kPa	752.9 ± 2.1
33961 kPa	753 ± 2.1
33976 kPa	752.9 ± 2.1
33992 kPa	752.9 ± 2.1
34010 kPa	752.9 ± 2.1
34029 kPa	752.9 ± 2.1
34050 kPa	753 ± 2.1
34069 kPa	753 ± 2.1
34090 kPa	752.9 ± 2.1
34112 kPa	753 ± 2.1
34129 kPa	753.1 ± 2.1
34148 kPa	753 ± 2.1
34176 kPa	753 ± 2.1
34198 kPa	752.9 ± 2.1
